Patent US20230339886A1 (University of Florida Research Foundation, Incorporated, priority 2020, published 2023)
Like-named read-outs stand apart in the source and are kept apart here.

Biological target: T1, REV-ERBα LBD (human; residues 281-614 Δ324-422) (Homo sapiens, UniProt P20393, DEL324-422)
T1 construct: 6×Histag-REV-ERBα LBD (human; residues 281-614 Δ324-422); made in house; host or cells: Escherichia coli
Assay: TR-FRET corepressor interaction assay (REV-ERBα LBD, FITC-SMRT peptide)
Type: biochemical
Method in brief: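 Compound serial dilutions (in DMSO, triplicate) incubated 2 h at 4 °C; Tb donor excited at 340 nm, emission read at 495 nm and FITC acceptor at 520 nm. TR-FRET ratio (520/495 nm) plotted against ligand concentration and fitted to a sigmoidal dose-response curve.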

[1] = FITC-SMRT peptide, read-out: REVERBα agonism (EC50 class, FRET assay)
[2] = Table 2, read-out: REVERBα agonism (EC50 class, FRET assay)

T1 sequence (P20393 with tags, fused parts or gaps DEL324-422): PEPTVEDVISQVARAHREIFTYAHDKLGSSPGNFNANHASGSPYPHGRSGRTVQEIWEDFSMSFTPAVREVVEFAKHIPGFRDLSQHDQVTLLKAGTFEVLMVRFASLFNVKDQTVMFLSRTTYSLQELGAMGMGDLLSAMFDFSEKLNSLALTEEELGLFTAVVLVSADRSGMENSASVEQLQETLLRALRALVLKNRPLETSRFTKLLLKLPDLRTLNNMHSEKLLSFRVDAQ
T1 sequence (Q9Y618 2335-2356 partner limits assumed): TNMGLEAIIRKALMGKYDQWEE

EC50 [1] [nM]	EC50 [2] [nM]	Compound
< 500		CC(C)(C)Cn1cc([C@H](NS(=O)(=O)C2CC2)C(F)(F)F)c2ccc(-c3ccccc3C#N)cc21 [Example 462, (S)—N-(1-(6-(2-cyanophenyl)-1-neopentyl-1H-indol-3-yl)-2,2,2-trifluoroethyl)cyclopropanesulfonamide]
	> 3000	COC(=O)Cn1cc(CCNS(=O)(=O)N(C)C)c2ccc(Br)cc21 [Example 164, methyl 2-(6-bromo-3-(2-((N,N-dimethylsulfamoyl)amino)ethyl)-1H-indol-1-yl)acetate]
	< 500	CC(C)S(=O)(=O)NCCc1cn(CC2CCCC2)c2cc(-c3ccncc3)ccc12 [Compound 272]
	500 to 3000	CC(C)Cn1cc(CCNS(=O)(=O)N(C)C)c2ccc(C3(O)CCC3)cc21 [Example 107, 1-(3-{2-[(dimethylsulfamoyl)amino]ethyl}-1-(2-methylpropyl)-1H-indol-6-yl)cyclobutan-1-ol]
	< 500	CC(C)Cn1cc(CCNS(=O)(=O)N(C)C)c2cc(F)c(-c3ccncc3)cc21 [Example 176, ({2-[5-fluoro-1-(2-methylpropyl)-6-(pyridin-4-yl)-1H-indol-3-yl]ethyl}sulfamoyl)dimethylamine]
500 to 3000		CC(C)Cn1cc(C(CS(=O)(=O)C2CC2)C(F)(F)F)c2ccc(-c3ccccc3C(F)(F)F)cc21 (stereo not shown) [Example 498, 3-(3-(cyclopropylsulfonyl)-1,1,1-trifluoropropan-2-yl)-1-isobutyl-6-(2-(trifluoromethyl)phenyl)-1H-indole]
500 to 3000		CC(C)(C)Cn1cc([C@H](NS(=O)(=O)C2CC(O)C2)C(F)(F)F)c2ccc(-c3ccccc3C(F)(F)F)cc21 (stereo partly drawn) [Example 522, (S)-3-hydroxy-N-(2,2,2-trifluoro-1-(1-neopentyl-6-(2-(trifluoromethyl)phenyl)-1H-indol-3-yl)ethyl)cyclobutane-1-sulfonamide]
	< 500	CC(C)Cn1cc(CNS(=O)(=O)N(C)C)c2ccc(-c3ccncc3)cc21 [Compound 239]
	500 to 3000	CC(C)Cn1cc(CN(C)S(=O)(=O)N(C)C)c2ccc(-c3ccncc3)cc21 [Compound 246]
< 500		CC(C)(C)Cn1cc([C@@H](CO)NS(=O)(=O)C2CC2)c2ccc(-c3ccccc3C(F)(F)F)cc21 [Example 432, (S)—N-(2-hydroxy-1-(1-neopentyl-6-(2-(trifluoromethyl)phenyl)-1H-indol-3-yl)ethyl)cyclopropanesulfonamide]
	500 to 3000	CC(C)Cn1cc(CCN(C)S(=O)(=O)N(C)C)c2ccc(N(C)C)cc21 [Example 114, N′-{2-[6-N,N-dimethylamino-1-(2-methylpropyl)-1H-indol-3-yl]ethyl}-N′-methyl-N,N-dimethyl sulfuric diamide]
	> 3000	CC(C)Cn1cc(CC(N(C)S(=O)(=O)C(C)C)C(F)(F)F)c2ccc(-c3ccncc3)cc21 (stereo not shown) [Compound 274]
< 500		CC(C)(C)Cn1cc([C@H](NS(=O)(=O)C2CCC2)C(F)(F)F)c2cc(F)c(-c3ccccc3C(F)(F)F)nc21 [Example 525, (S)—N-(2,2,2-trifluoro-1-(5-fluoro-1-neopentyl-6-(2-(trifluoromethyl)phenyl)-1H-pyrrolo[2,3-b]pyridin-3-yl)ethyl)cyclobutanesulfonamide]
< 500		CC(C)(C)Cn1cc([C@H](NS(=O)(=O)C2CC2)C(F)F)c2cc(F)c(-c3ccccc3C(F)(F)F)cc21 [Example 542, (S)—N-(2,2-difluoro-1-(5-fluoro-1-neopentyl-6-(2-(trifluoromethyl)phenyl)-1H-indol-3-yl)ethyl)cyclopropanesulfonamide]
	500 to 3000	CC(C)Cn1cc(CCNS(C)(=O)=O)c2ccc(-c3ccncc3)cc21 [Compound 3]
	< 500	Cc1ccccc1-c1ccc2c(CCNS(=O)(=O)N(C)C)cn(CC(C)C)c2c1 [Example 46, N-{2-[6-(2-methylphenyl)-1-(2-methylpropyl)-1H-indol-3-yl]ethyl}-N,N-dimethylsulfuric diamide]
